The record followed here is patent US4603217A, “Ester substituted alkyl-2-(2,6-dichloroanilino)phenyl acetates” (priority 1983, dated 1986).

Data set [1] in a line: Rate of hydrolysis in rat plasma. It counts as in vitro ADME. To be noted: in 1 ml of plasma rat (37° C., incubation for 1 hr). Here is the method: **in 1 ml of plasma rat (37° C., incubation for 1 hr)
Data set [2] deals with carrageenan edema. In words: inhibition test of carrageenan edema employing a foot-pad edema method. It counts as in vivo, male Wister rats. As to conditions: for ED50: Rattus norvegicus, male Wister rats, foot-pad edema, read-out: ED50 for inhibition for carrageenan edema; for anti-inflammatory activity compared with DF: relative to DF. The text has this:
Anti-inflammatory action was investigated according to the method of Winter et al [cf. Pro. Soc. Exp. Biol. Med., 111, 544 (1962)] by the inhibition test of carrageenan edema employing a foot-pad edema method using carrageenan as an irritating agent and male Wister rats weighing 130 to 170 g.

Data set [3] is described as follows: in vivo. As to conditions: mouse, po.
Data set [4] is described as follows: Gastrointestinal ulcer formation action (gastric ulceration). To be noted: rat, po. The method, then: Gastrointestinal ulcer formation action, which is a principal side effect of an acid anti-inflammatory drug, was investigated according to the method of Okabe et al [cf. […] The compounds of the present invention, IM, DF and acemethacin were suspended in 5% Tween-80 solution and administered orally 1 ml/100 g body weight to the rats, respectively. At 6 hrs after the administration, the state of glandstomach was observed by means of a dissecting microscope whether the ulcer having a diameter more than 1 mm was generated or not.

Data set [5] relates to ultraviolet erythema. Put plainly: inhibition action for ultraviolet erythema. It counts as in vivo, male Hartley guinea pigs. Further details: 2 hs after the irradiation, Average ± standard error / 3 hs after the irradiation, Average ± standard error / 5 hs after the irradiation, Average ± standard error: scale not given here; 2 hs after the irradiation, Rate for inhibition / 3 hs after the irradiation, Rate for inhibition / 5 hs after the irradiation, Rate for inhibition: unit not given here. As to conditions: for 2 hs after the irradiation, Average ± standard error / 2 hs after the irradiation, Rate for inhibition: 2 hs after irradiation; for 2 hs after the irradiation, Average ± standard error / 2 hs after the irradiation, Rate for inhibition / 3 hs after the irradiation, Average ± standard error / 3 hs after the irradiation, Rate for inhibition / 5 hs after the irradiation, Average ± standard error / 5 hs after the irradiation, Rate for inhibition: guinea pigs; for 3 hs after the irradiation, Average ± standard error / 3 hs after the irradiation, Rate for inhibition: 3 hs after irradiation; for 5 hs after the irradiation, Average ± standard error / 5 hs after the irradiation, Rate for inhibition: 5 hs after irradiation. Here is the method:
With respect to Compounds 1 to 3, 15 and 21 which are especially useful as an anti-inflammatory drug, IM and DF, inhibition action for ultraviolet erythema was investigated according to the method of Adames et al [cf. Nature, London, 181, 773 (1958)] using guinea pigs as follows: Male Hartley guinea pigs weighing 250 to 350 g were shaved at their sides the day before and two hrs before the ultraviolet irradiation. To the guinea pigs were administered orally Compounds 1 to 3, 15 and 21, IM and DF in amounts as described in Table 2, respectively. To the control group was administered orally only Tween-80. At 1 hr after the time of administration, the guinea pigs were irradiated at their shaved sides by ultraviolet beam for 40 seconds.
The reaction of the ultraviolet erythema was evaluated at 2 hrs, 3 hrs and 5 hrs after irradiation according to the method of Winder et al [cf. Arch. Int. Pharmacodyn., 116, 261 (1958)]. […] Compounds 1 and 2 show a duration of the pharmacological effect over 5 hrs, contrary to that IM has a duration of 2 hrs.

On to `COc1ccc2c(c1)c(CC(=O)OCC(=O)O)c(C)n2C(=O)c1ccc(Cl)cc1` [Acemethacin, acemethacin, reference compound], for which the metabolised at 1 h in data set [1] is 4.2%. The ED50 in data set [2] came out at 8.3 mg/kg. This compound had an LD50 in data set [3] of 45 mg/kg. The TD50 at 6 h in data set [4] (in vivo) turned out to be 17.5 mg/kg.
In the case of `C/C=C/C(=O)OCCOC(=O)Cc1c(C)n(C(=O)c2ccc(Cl)cc2)c2ccc(OC)cc12` [Compound 4], the metabolised at 1 h in data set [1] is 83%. Further, the ED50 in data set [2] came out at 15 mg/kg. In addition, the LD50 in data set [3] is 85 mg/kg. Moreover, in data set [4], the TD50 at 6 h was found to be 40 mg/kg.
`COc1ccc2c(c1)c(CC(=O)OCCOC(=O)C=C(C)C)c(C)n2C(=O)c1ccc(Cl)cc1` [Compound 5, 2-(3,3-Dimethylacryloyloxy)ethyl[1-(p-chlorobenzoyl)-5-methoxy-2-methyl-3-indolyl]acetate] displayed a metabolised at 1 h in data set [1] of 75.3%. The ED50 in data set [2] is 15 mg/kg. This compound displayed an LD50 in data set [3] of 62 mg/kg. This compound displayed a TD50 at 6 h in data set [4] of 40 mg/kg.
As for `CC=CC=CC(=O)OCCOC(=O)Cc1c(C)n(C(=O)c2ccc(Cl)cc2)c2ccc(OC)cc12` [Compound 6, 2-(2,4-Hexadienoyloxy)ethyl[1-(p-chlorobenzoyl)-5-methoxy-2-methyl-3-indolyl]acetate], the metabolised at 1 h in data set [1] stood at 69%. Moreover, the ED50 in data set [2] worked out at 13 mg/kg. Also, the 50% lethal dose (LD50) in data set [3] worked out at 85 mg/kg. The same compound showed a TD50 at 6 h in data set [4] of 40 mg/kg.
Compound `COc1ccc2c(c1)c(CC(=O)OCCOC(=O)C=C(C)CCC=C(C)C)c(C)n2C(=O)c1ccc(Cl)cc1` [Compound 7, 2-(3,7-Dimethyl-2,6-octadienoyloxy)ethyl[1-(p-chlorobenzoyl)-5-methoxy-2-methyl-3-indolyl]acetate] showed a metabolised at 1 h in data set [1] of 60.5%. Besides, the ED50 in data set [2] was over 20 mg/kg. In addition, the LD50 in data set [3] turned out to be 780 mg/kg. In data set [4], this compound returned a TD50 at 6 h of over 20 mg/kg.
For the compound `COc1ccc2c(c1)c(CC(=O)OC(C)OC(C)=O)c(C)n2C(=O)c1ccc(Cl)cc1` (centres unmarked) [Compound 8, 1-(Acetoxy)ethyl[1-(p-chlorobenzoyl)-5-methoxy-2-methyl-3-indolyl]acetate], in data set [1], the metabolised at 1 h was found to be 99.8%. Also, in data set [2], the ED50 is 6 mg/kg. In addition, the median lethal dose (LD50) in data set [3] amounted to 65 mg/kg. In data set [4], the TD50 at 6 h amounted to 20 mg/kg.
On to `CCC(=O)OC(C)OC(=O)Cc1c(C)n(C(=O)c2ccc(Cl)cc2)c2ccc(OC)cc12` (centres unmarked) [Compound 9, 1-(Propionyloxy)ethyl[1-(p-chlorobenzoyl)-5-methoxy-2-methyl-3-indolyl]acetate], for which the metabolised at 1 h in data set [1] was found to be 97.3%. For the same compound, the ED50 in data set [2] stood at 6 mg/kg. For the same compound, the LD50 in data set [3] worked out at 65 mg/kg. The compound further yielded a TD50 at 6 h in data set [4] of 20 mg/kg.
On to `COc1ccc2c(c1)c(CC(=O)OC(C)OC(=O)C=C(C)C)c(C)n2C(=O)c1ccc(Cl)cc1` (centres unmarked) [Compound 11, 1-(3,3-Dimethylacryloyloxy)ethyl[1-(p-chlorobenzoyl)-5-methoxy-2-methyl-3-indolyl]acetate], for which the metabolised at 1 h in data set [1] worked out at 85.4%. Also, the median effective dose (ED50) in data set [2] came to 15 mg/kg. In data set [3], this compound came in with an LD50 of 45 mg/kg. The compound further displayed a TD50 at 6 h in data set [4] of 10 mg/kg.
With `CC=CC=CC(=O)OC(C)OC(=O)Cc1c(C)n(C(=O)c2ccc(Cl)cc2)c2ccc(OC)cc12` (centres unmarked) [Compound 12, 1-(2,4-Hexadienoyloxy)ethyl[1-(p-chlorobenzoyl)-5-methoxy-2-methyl-3-indolyl]acetate], the metabolised at 1 h in data set [1] came out at 80.4%. Besides, the ED50 in data set [2] was over 20 mg/kg. The LD50 in data set [3] came to 640 mg/kg. The compound further had a TD50 at 6 h in data set [4] of over 20 mg/kg.
Take `C/C=C/C(=O)OCOC(=O)Cc1ccccc1Nc1c(Cl)cccc1Cl` [Compound 13, Crotonoyloxymethyl-2-(2,6-dichloroanilino)-phenylacetate]: the metabolised at 1 h in data set [1] turned out to be 89.7%. The ED50 in data set [2] was under 30 mg/kg. The compound also came in with an LD50 in data set [3] of 400 mg/kg. In data set [4], the TD50 at 6 h was 30 mg/kg.
`CC(C)=CC(=O)OCOC(=O)Cc1ccccc1Nc1c(Cl)cccc1Cl` [Compound 14, 3,3-Dimethylacryloyloxymethyl-2-(2,6-dichloroanilino)phenylacetate] showed a metabolised at 1 h in data set [1] of 83.4%. The ED50 in data set [2] was under 30 mg/kg. Also, in data set [3], the LD50 was determined as 455 mg/kg. This compound showed a TD50 at 6 h in data set [4] of 30 mg/kg.
Regarding `CC=CC=CC(=O)OCOC(=O)Cc1ccccc1Nc1c(Cl)cccc1Cl` [Compound 15, 2,4-Hexadienoyloxymethyl-2-(2,6-dichloroanilino)phenylacetate], in data set [5] (3 mg/kg orally), the “2 hs after the irradiation, Average ± standard error” value is recorded as 1.17 ± 0.167; the “2 hs after the irradiation, Rate for inhibition” value came to 56.2; the “3 hs after the irradiation, Average ± standard error” value worked out at 2.0 ± 0.258; the “3 hs after the irradiation, Rate for inhibition” value amounted to 29.3. Also, in data set [5] (3 mg/kg orally), the “5 hs after the irradiation, Average ± standard error” value is on record as 3.00 ± 0 and the “5 hs after the irradiation, Rate for inhibition” value is 0. Besides, in data set [5] (10 mg/kg orally), the “2 hs after the irradiation, Average ± standard error” value was found to be 0.67 ± 0.211; the “2 hs after the irradiation, Rate for inhibition” value is reported as 74.9; the “3 hs after the irradiation, Average ± standard error” value was determined as 2.3 ± 0.333; the “3 hs after the irradiation, Rate for inhibition” value was 18.7. In data set [5] (10 mg/kg orally), the “5 hs after the irradiation, Average ± standard error” value is reported as 2.83 ± 0.167 and the “5 hs after the irradiation, Rate for inhibition” value stood at 0. In addition, in data set [5] (relative to IM and DF), the “inhibition effect for ultraviolet erythema compared with IM and DF” value is “equal inhibition effect for ultraviolet erythema to that of IM and DF”. For the same compound, the metabolised at 1 h in data set [1] came to 80.5%. Moreover, in data set [2], the ED50 was determined as 20 mg/kg and the “anti-inflammatory activity compared with DF” value is given as “almost equal anti-inflammatory activity to DF”. Moreover, the LD50 in data set [3] is 500 mg/kg.
For `CC(=O)OCCOC(=O)Cc1ccccc1Nc1c(Cl)cccc1Cl` [Compound 16, 2-(Acetoxy)ethyl-2-(2,6-dichloroanilino)-phenylacetate], the metabolised at 1 h in data set [1] was 93.7%. In data set [2], the ED50 worked out at 20 mg/kg and the “anti-inflammatory activity compared with DF” value is “almost equal anti-inflammatory activity to DF”. This compound also gave an LD50 in data set [3] of 610 mg/kg.
As to `CC(C)=CC(=O)OCCOC(=O)Cc1ccccc1Nc1c(Cl)cccc1Cl` [Compound 17, 2-(3,3-Dimethylacryloyloxy)ethyl-2-(2,6-dichloroanilino)phenylacetate], in data set [1], the metabolised at 1 h is 78.4%. In addition, the ED50 in data set [2] amounted to 30 mg/kg. For the same compound, the 50% lethal dose (LD50) in data set [3] was 400 mg/kg. Moreover, the TD50 at 6 h in data set [4] amounted to 30 mg/kg.
On to `CC(=O)OC(C)OC(=O)Cc1ccccc1Nc1c(Cl)cccc1Cl` (centres unmarked) [Compound 18, 1-(Acetoxy)ethyl-2-(2,6-dichloroanilino)-phenylacetate], for which the metabolised at 1 h in data set [1] was 96.1%. Further, in data set [2], the ED50 stood at 20 mg/kg and the “anti-inflammatory activity compared with DF” value is listed as “almost equal anti-inflammatory activity to DF”. This compound registered an LD50 in data set [3] of 295 mg/kg. In data set [4], this compound registered a TD50 at 6 h of 30 mg/kg.
Compound `C/C=C/C(=O)OC(C)OC(=O)Cc1ccccc1Nc1c(Cl)cccc1Cl` (centres unmarked) [Compound 19, 1-(Crotonoyloxy)ethyl-2-(2,6-dichloroanilino)phenylacetate] yielded a metabolised at 1 h in data set [1] of 86%. In data set [2], the ED50 is under 30 mg/kg. The median lethal dose (LD50) in data set [3] is 380 mg/kg. The compound also showed a TD50 at 6 h in data set [4] of 30 mg/kg.
Consider `CC(C)=CC(=O)OC(C)OC(=O)Cc1ccccc1Nc1c(Cl)cccc1Cl` (centres unmarked) [Compound 20, 1-(3,3-Dimethylacryloyloxy)ethyl-2-(2,6-dichloroanilino)phenylacetate], for which the metabolised at 1 h in data set [1] came to 80.3%. Further, in data set [2], the ED50 is 20 mg/kg and the “anti-inflammatory activity compared with DF” value is “almost equal anti-inflammatory activity to DF”. Further, in data set [3], the LD50 was determined as 460 mg/kg. For the same compound, in data set [4], the TD50 at 6 h came to 30 mg/kg.
